# Results published in PubChem BioAssay (NCI).
#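 Step 1: Grow cells in 96-well plates. Step 2: Expose to compound for 48 hours at 5 concentrations. Step 3: Interpolate endpoints linearly; if unreached, use highest concentration. The concentration for 50% growth inhibition is given as GI50. TGI: concentration producing complete growth inhibition.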
# What was measured:
# Assay in all cases: DTP human tumour cell line panel, 48 h
# 786-0 renal = tested on: 786-0 renal
# A498 renal = tested on: A498 renal
# A549 NSCLC = tested on: A549 NSCLC
# ACHN renal = tested on: ACHN renal
# BT-549 breast = tested on: BT-549 breast
# CAKI-1 renal = tested on: CAKI-1 renal
# CCRF-CEM leukemia = tested on: CCRF-CEM leukemia
# COLO 205 colon = tested on: COLO 205 colon
# DU-145 prostate = tested on: DU-145 prostate
# EKVX NSCLC = tested on: EKVX NSCLC
# HCC-2998 colon = tested on: HCC-2998 colon
# HCT-116 colon = tested on: HCT-116 colon
# HCT-15 colon = tested on: HCT-15 colon
# HL-60(TB) leukemia = tested on: HL-60(TB) leukemia
# HOP-62 NSCLC = tested on: HOP-62 NSCLC
# HS 578T breast = tested on: HS 578T breast
# HT29 colon = tested on: HT29 colon
# IGROV1 ovarian = tested on: IGROV1 ovarian
# K-562 leukemia = tested on: K-562 leukemia
# KM12 colon = tested on: KM12 colon
# LOX IMVI melanoma = tested on: LOX IMVI melanoma
# M14 melanoma = tested on: M14 melanoma
# MALME-3M melanoma = tested on: MALME-3M melanoma
# MCF7 breast = tested on: MCF7 breast
# MDA-MB-231 breast = tested on: MDA-MB-231 breast
# MDA-MB-435 = tested on: MDA-MB-435
# MDA-N = tested on: MDA-N
# NCI-H226 lung = tested on: NCI-H226 lung
# NCI-H23 lung = tested on: NCI-H23 lung
# NCI-H460 lung = tested on: NCI-H460 lung
# NCI-H522 lung = tested on: NCI-H522 lung
# NCI/ADR-RES ovarian = tested on: NCI/ADR-RES ovarian
# OVCAR-3 ovarian = tested on: OVCAR-3 ovarian
# OVCAR-4 ovarian = tested on: OVCAR-4 ovarian
# OVCAR-5 ovarian = tested on: OVCAR-5 ovarian
# OVCAR-8 ovarian = tested on: OVCAR-8 ovarian
# PC-3 prostate = tested on: PC-3 prostate
# RPMI-8226 leukemia = tested on: RPMI-8226 leukemia
# RXF 393 renal = tested on: RXF 393 renal
# SF-268 CNS = tested on: SF-268 CNS
# SF-295 CNS = tested on: SF-295 CNS
# SK-MEL-2 melanoma = tested on: SK-MEL-2 melanoma
# SK-MEL-28 melanoma = tested on: SK-MEL-28 melanoma
# SK-MEL-5 melanoma = tested on: SK-MEL-5 melanoma
# SK-OV-3 ovarian = tested on: SK-OV-3 ovarian
# SN12C renal = tested on: SN12C renal
# SNB-19 CNS = tested on: SNB-19 CNS
# SNB-75 CNS = tested on: SNB-75 CNS
# SR leukemia = tested on: SR leukemia
# SW-620 colon = tested on: SW-620 colon
# T-47D breast = tested on: T-47D breast
# TK-10 renal = tested on: TK-10 renal
# U251 CNS = tested on: U251 CNS
# UACC-257 melanoma = tested on: UACC-257 melanoma
# UACC-62 melanoma = tested on: UACC-62 melanoma
# UO-31 renal = tested on: UO-31 renal
structure (smiles),measurement,setting,value
COc1cc(Nc2nc3cc(N)cc(N)c3nc2-c2ccccc2)cc(OC)c1,GI50,786-0 renal,17.7 µM
same,TGI,786-0 renal,50.8 µM
same,GI50,A498 renal,4.91 µM
same,TGI,A498 renal,22.4 µM
same,GI50,A549 NSCLC,20.1 µM
same,TGI,A549 NSCLC,> 100 µM
same,GI50,ACHN renal,5.65 µM
same,TGI,ACHN renal,83.2 µM
same,GI50,BT-549 breast,4.69 µM
same,TGI,BT-549 breast,31.8 µM
same,GI50,CAKI-1 renal,14.9 µM
same,TGI,CAKI-1 renal,73 µM
same,TGI,CCRF-CEM leukemia,0.167 µM
same,GI50,COLO 205 colon,14.5 µM
same,TGI,COLO 205 colon,31.4 µM
same,GI50,DU-145 prostate,22.7 µM
same,TGI,DU-145 prostate,> 100 µM
same,GI50,EKVX NSCLC,13.3 µM
same,TGI,EKVX NSCLC,64.4 µM
same,GI50,HCC-2998 colon,24.3 µM
same,TGI,HCC-2998 colon,> 100 µM
same,GI50,HCT-116 colon,16.9 µM
same,TGI,HCT-116 colon,54.1 µM
same,GI50,HCT-15 colon,20 µM
same,TGI,HCT-15 colon,> 100 µM
same,GI50,HL-60(TB) leukemia,9.99 µM
same,TGI,HL-60(TB) leukemia,> 100 µM
same,GI50,HOP-62 NSCLC,19.6 µM
same,TGI,HOP-62 NSCLC,53.8 µM
same,GI50,HS 578T breast,10.9 µM
same,TGI,HS 578T breast,63.8 µM
same,GI50,HT29 colon,27.3 µM
same,TGI,HT29 colon,> 100 µM
same,GI50,IGROV1 ovarian,2.7 µM
same,TGI,IGROV1 ovarian,17.1 µM
same,GI50,K-562 leukemia,27.5 µM
same,TGI,K-562 leukemia,> 100 µM
same,GI50,KM12 colon,13.3 µM
same,TGI,KM12 colon,31.2 µM
same,GI50,LOX IMVI melanoma,15.2 µM
same,TGI,LOX IMVI melanoma,50.6 µM
same,GI50,M14 melanoma,14.2 µM
same,TGI,M14 melanoma,34.8 µM
same,GI50,MALME-3M melanoma,4.34 µM
same,TGI,MALME-3M melanoma,24.6 µM
same,GI50,MCF7 breast,7.86 µM
same,TGI,MCF7 breast,27.1 µM
same,GI50,MDA-MB-231 breast,6.5 µM
same,TGI,MDA-MB-231 breast,34.3 µM
same,GI50,MDA-MB-435,11.5 µM
same,TGI,MDA-MB-435,23.8 µM
same,GI50,MDA-N,13 µM
same,TGI,MDA-N,35.9 µM
same,GI50,NCI-H226 lung,2.9 µM
same,TGI,NCI-H226 lung,32.9 µM
same,GI50,NCI-H23 lung,27.5 µM
same,TGI,NCI-H23 lung,> 100 µM
same,GI50,NCI-H460 lung,7.91 µM
same,TGI,NCI-H460 lung,52.8 µM
same,GI50,NCI-H522 lung,9.51 µM
same,TGI,NCI-H522 lung,28.8 µM
same,GI50,NCI/ADR-RES ovarian,12.9 µM
same,TGI,NCI/ADR-RES ovarian,73.4 µM
same,GI50,OVCAR-3 ovarian,3.9 µM
same,TGI,OVCAR-3 ovarian,20.1 µM
same,GI50,OVCAR-4 ovarian,17.8 µM
same,TGI,OVCAR-4 ovarian,> 100 µM
same,GI50,OVCAR-5 ovarian,26.6 µM
same,TGI,OVCAR-5 ovarian,> 100 µM
same,GI50,OVCAR-8 ovarian,6.2 µM
same,TGI,OVCAR-8 ovarian,47 µM
same,GI50,PC-3 prostate,1.96 µM
same,TGI,PC-3 prostate,10.9 µM
same,GI50,RPMI-8226 leukemia,1.27 µM
same,TGI,RPMI-8226 leukemia,10.4 µM
same,GI50,RXF 393 renal,3.15 µM
same,TGI,RXF 393 renal,18.8 µM
same,GI50,SF-268 CNS,5.59 µM
same,TGI,SF-268 CNS,55.8 µM
same,GI50,SF-295 CNS,12.5 µM
same,TGI,SF-295 CNS,59.2 µM
same,GI50,SK-MEL-2 melanoma,12 µM
same,TGI,SK-MEL-2 melanoma,63.8 µM
same,GI50,SK-MEL-28 melanoma,14.7 µM
same,TGI,SK-MEL-28 melanoma,89.3 µM
same,GI50,SK-MEL-5 melanoma,10.5 µM
same,TGI,SK-MEL-5 melanoma,30 µM
same,GI50,SK-OV-3 ovarian,6.55 µM
same,TGI,SK-OV-3 ovarian,40.2 µM
same,GI50,SN12C renal,8.62 µM
same,TGI,SN12C renal,> 100 µM
same,GI50,SNB-19 CNS,58.3 µM
same,TGI,SNB-19 CNS,> 100 µM
same,GI50,SNB-75 CNS,3.7 µM
same,TGI,SNB-75 CNS,44.9 µM
same,GI50,SR leukemia,5.67 µM
same,TGI,SR leukemia,> 100 µM
same,GI50,SW-620 colon,27.2 µM
same,TGI,SW-620 colon,> 100 µM
same,GI50,T-47D breast,4.44 µM
same,TGI,T-47D breast,23 µM
same,GI50,TK-10 renal,13.1 µM
same,TGI,TK-10 renal,42.7 µM
same,GI50,U251 CNS,22.9 µM
same,TGI,U251 CNS,> 100 µM
same,GI50,UACC-257 melanoma,15.9 µM
same,TGI,UACC-257 melanoma,48 µM
same,GI50,UACC-62 melanoma,7.33 µM
same,TGI,UACC-62 melanoma,23.3 µM
same,GI50,UO-31 renal,8.87 µM
same,TGI,UO-31 renal,45 µM
